Test results taken from PMC8899577, “Targeting the anti-apoptotic Bcl-2 family proteins: machine learning virtual screening and biological evaluation of new small molecules” (Theranostics, 2022).

Columns and labels:
Mcl-1 = Mcl-1 (Homo sapiens, UniProt Q07820); experiment: SPR binding to immobilized Mcl-1; details: 25 °C, 2-site fit, highest affinity site
Description: FastStep experiments were performed with a SensiQ Pioneer apparatus. Bcl-2 immobilization on COOH5 sensorchips was carried out essentially as previously reported, [40]. All the experiments were carried out at 25 °C in degassed HEPES 20 mM, pH 7.4, NaCl 150 mM, 0.005% surfactant P20 + 2% DMSO (HBSP2%D). […] Each sensorgram is the average of at least three experiments. The decrease in Response Units (RU) after 165 s indicates analyte dissociation from the immobilized Bcl-2 upon HSBP2%D buffer injection. Control SPR experiments were carried out measuring sensorgrams on Bcl-xL and Mcl-1 (ligands) immobilized on COOH5 sensorchips as previously reported at 25 °C in degassed HBSP2%D buffer. […] Each sensorgram is the average of at least three experiments. The decrease in RU after 180 s indicates analyte dissociation from the immobilized ligands upon HSBP2%D buffer injection. Kinetic evaluation of the sensorgrams was carried out using the Qdat 4.0 program; best fittings were obtained with 2 sites and indicated in red (reported KD values refer to dissociation constants of the highest affinity site).
Figure 3 SPR analysis of the interaction between IS20 or IS21 and Bcl-xL and Mcl-1 proteins. SPR experiments were carried out measuring sensorgrams on Bcl-xL and Mcl-1 (ligands) immobilized on COOH5 sensorchips at 25 °C in degassed HBSP2%D buffer. IS20 and IS21 (analytes) were injected at a flow rate = 30 μL/min, at the following concentrations: 0.3 μM (only for Mcl-1 experiments); 1 μM; 3 μM; 10 μM; 30 μM. Each sensorgram is the average of at least three experiments. The decrease in RU (Response Units) after 180 s indicates analyte dissociation from the immobilized ligands upon HSBP2%D buffer injection. The fitted KD values for Bcl-xL are the following. IS20: 0.42 ± 0.09 μM and IS21: 0.51 ± 0.17 μM. The fitted KD values for Mcl-1are the following. IS20: 3.9 ± 0.30 μM and IS21: 1.16 ± 0.14 μM;

M14 cells [1] = experiment: Clonogenic assay, M14; type: cell-based, Human; details: 20 µM for 72 h, respect to controls
Description: The effect of compounds on cell viability was performed by measuring 3-[4,5-dimethylthiazol-2-yl]-2,5-diphenyltetrazolium bromide inner salt (MTT, Sigma-Aldrich) dye absorbance (solid tumor cells) or by quantization of ATP present in metabolically active cells using CellTiter-Glo® Luminescent (Promega, Fitchburg, Wisconsin, USA) (hematologic cells) following manifacturer's protocol. To evaluate the cell colony-forming ability, cell suspension from different samples was seeded into 60-mm Petri dishes. After 10 days, colonies were stained with 2% methylene blue in 95% ethanol and counted (1 colony > 50 cells). The surviving fractions were calculated as the ratio of absolute survival of the treated sample/survival of DMSO-treated control sample.
Figure 4 Analysis of the effect of IS20 and IS21 on cell viability, clonogenic ability and tumor sphere formation in cancer cells. […] (B) Representative images and quantification of clonogenic ability evaluated in M14 and H1299 cells treated with IS20 or IS21 (20 μM for 72 h). […] (C) Quantification of tumor sphere formation of M14 and H1299 cells treated with IS20 or IS21 (20 μM for 72 h). […] (A-C) Data are reported as mean ± SD of three independent experiments. p-values were calculated between control (Ctrl) and treated cells, ** p < 0.001 and *** p < 0.0001.

M14 cells [2] = experiment: Tumor sphere formation assay, M14; type: cell-based, Human; details: 20 µM for 72 h, respect to controls
Description: For tumor sphere assay, cells were recovered after treatment, counted and seeded in 24-well ultralow attachment surface plates at a density of 5 × 10^2 cells/well and cultured as previously described. After 10 days, spheres were photographed and counted. The percentage of spheres normalized to the number of seeded cells was calculated.
Figure 4 Analysis of the effect of IS20 and IS21 on cell viability, clonogenic ability and tumor sphere formation in cancer cells. (A) Analysis of cell viability by MTT assay in M14, H1299, HCT116 and MDA-MB-231 cell lines treated with IS20 or IS21 (20 μM for 72 h). The results are reported as “viability of treated cells/viability of control cells (Ctrl)” × 100. (B) Representative images and quantification of clonogenic ability evaluated in M14 and H1299 cells treated with IS20 or IS21 (20 μM for 72 h). Results are reported as percentage of clonogenicity of treated versus control cells. (C) Quantification of tumor sphere formation of M14 and H1299 cells treated with IS20 or IS21 (20 μM for 72 h). Results are reported as percentage of tumor sphere formation of treated versus control. (A-C) Data are reported as mean ± SD of three independent experiments. p-values were calculated between control (Ctrl) and treated cells, ** p < 0.001 and *** p < 0.0001.

H1299 cells = experiment: Western blot of PARP1 cleavage, H1299; type: cell-based, Human; details: 72 h
Description: (§1) Western blot analyses of total protein extracts were performed as previously described. Immunodetection was performed using antibodies directed to poly (ADP-ribose) polymerase (PARP; BD Biosciences San Diego, CA, USA), LC3B (Cell Signaling Technology, Danvers, MA), HSP72/73 (Calbiochem, EMD Biosciences, La Jolla, CA), Bcl-2 (SC-509, Santa Cruz Biotechnology Inc, Dallas, TX, USA), Bcl-xL (SC-271121, Santa Cruz Biotechnology Inc), Mcl-1 (SC-12756, Santa Cruz Biotechnology Inc) α-tubulin (Santa Cruz Biotechnology Inc) actin (Sigma-Aldrich, St. Louis, Missouri, USA). Anti-rabbit or anti-mouse immunoglobulin G-horseradish peroxidase-conjugated antibodies (Amersham Biosciences, Freiburg, Germany) were used as secondary antibody. Images were acquired by Image Lab Software (Bio-Rad, Hercules, CA, USA), using a ChemiDoc System instrument (Bio-Rad). […]
(§2) Figure 5 Analysis of apoptosis induction by IS20 and IS21 in leukemia, melanoma and NSCLC cells. […] (G) Flow cytometric quantification of cells in the subG1 peak of cell cycle distribution by propidium iodide staining in HL60 cell line treated with IS20 or IS21 (20 μM for 24 h) and in M14, H1299 and MDA-MB-231 cell lines treated with IS20 or IS21 (20 μM for 72 h). Data are reported as mean ± SD of three independent experiments. p-values were calculated between control (Ctrl) and treated cells, * p < 0.05. […]

MDA-MB-231 cells = experiment: Western blot of PARP1 cleavage, MDA-MB-231; type: cell-based, Human; details: 72 h
Description: as §1, §2

U937 cells = experiment: Western blot of LC3B-I/LC3B-II (autophagy), U937; type: cell-based, Human; details: 20 µM for 24 h

Mcl-1, sequence (Q07820 whole entry): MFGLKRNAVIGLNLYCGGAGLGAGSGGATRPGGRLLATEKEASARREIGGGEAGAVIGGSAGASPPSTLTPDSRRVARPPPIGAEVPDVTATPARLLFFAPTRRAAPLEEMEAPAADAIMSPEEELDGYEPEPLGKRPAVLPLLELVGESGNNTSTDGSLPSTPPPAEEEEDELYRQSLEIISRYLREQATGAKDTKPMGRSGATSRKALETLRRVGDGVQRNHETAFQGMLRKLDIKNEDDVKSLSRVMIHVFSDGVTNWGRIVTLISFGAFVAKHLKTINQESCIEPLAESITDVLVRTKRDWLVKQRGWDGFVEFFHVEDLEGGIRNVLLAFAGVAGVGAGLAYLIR

In the case of `CCCCCOc1ccc(C2/C(=C(\O)c3ccc4c(c3)CC(C)O4)C(=O)C(=O)N2c2nnc(SCc3ccc(Cl)cc3)s2)cc1OCC` (stereo not drawn) [IS21], the Kd (Mcl-1) is reported as 1160 ± 140 nM, the “decrease of cell colony formation, M14” value (M14 cells [1]) is reported as 80-90% and the “decrease of sphere formation capacity, M14” value (M14 cells [2]) is reported as “about 60%”. The “PARP1 cleavage, H1299” value (H1299 cells) was “cleavage of PARP1”, the “PARP1 cleavage, MDA-MB-231” value (MDA-MB-231 cells) was “not evident” and the “ratio of LC3B-II on LC3B-I, U937” value (U937 cells) was “Increased ratio”.

With `CCCCOc1ccc(C2/C(=C(\O)c3ccc4c(c3)CC(C)O4)C(=O)C(=O)N2c2nnc(SCc3ccc(Cl)cc3)s2)cc1OCC` (stereo not drawn) [IS20] the Kd (Mcl-1) was 3900 ± 300 nM, the “decrease of cell colony formation, M14” value (M14 cells [1]) was 80-90% and the “decrease of sphere formation capacity, M14” value (M14 cells [2]) was “about 60%”. For the same compound, the “PARP1 cleavage, H1299” value (H1299 cells) was “cleavage of PARP1”, the “PARP1 cleavage, MDA-MB-231” value (MDA-MB-231 cells) was “not evident” and the “ratio of LC3B-II on LC3B-I, U937” value (U937 cells) was “Increased ratio”.
